{"source": "paper PMC11674187", "about": "“Inhibitory Effects of Cenobamate on Multiple Human Cardiac Ion Channels and Possible Arrhythmogenic Consequences” (Biomolecules, 2024)", "key": {"[1]": {"settings": "rabbit; ref [5] p.10; cited from earlier work"}, "[2]": {"settings": "cited from earlier work; for healthy volunteers with QT interval shortening greater than 20 ms: study YKP3089C020, ref [9] p. 11"}, "[3]": {"molecular_target": "T1, hNav1.5 (Homo sapiens, UniProt Q14524)", "T1 construct": "host or cells: HEK293T", "T1 sequence (Q14524 whole entry)": "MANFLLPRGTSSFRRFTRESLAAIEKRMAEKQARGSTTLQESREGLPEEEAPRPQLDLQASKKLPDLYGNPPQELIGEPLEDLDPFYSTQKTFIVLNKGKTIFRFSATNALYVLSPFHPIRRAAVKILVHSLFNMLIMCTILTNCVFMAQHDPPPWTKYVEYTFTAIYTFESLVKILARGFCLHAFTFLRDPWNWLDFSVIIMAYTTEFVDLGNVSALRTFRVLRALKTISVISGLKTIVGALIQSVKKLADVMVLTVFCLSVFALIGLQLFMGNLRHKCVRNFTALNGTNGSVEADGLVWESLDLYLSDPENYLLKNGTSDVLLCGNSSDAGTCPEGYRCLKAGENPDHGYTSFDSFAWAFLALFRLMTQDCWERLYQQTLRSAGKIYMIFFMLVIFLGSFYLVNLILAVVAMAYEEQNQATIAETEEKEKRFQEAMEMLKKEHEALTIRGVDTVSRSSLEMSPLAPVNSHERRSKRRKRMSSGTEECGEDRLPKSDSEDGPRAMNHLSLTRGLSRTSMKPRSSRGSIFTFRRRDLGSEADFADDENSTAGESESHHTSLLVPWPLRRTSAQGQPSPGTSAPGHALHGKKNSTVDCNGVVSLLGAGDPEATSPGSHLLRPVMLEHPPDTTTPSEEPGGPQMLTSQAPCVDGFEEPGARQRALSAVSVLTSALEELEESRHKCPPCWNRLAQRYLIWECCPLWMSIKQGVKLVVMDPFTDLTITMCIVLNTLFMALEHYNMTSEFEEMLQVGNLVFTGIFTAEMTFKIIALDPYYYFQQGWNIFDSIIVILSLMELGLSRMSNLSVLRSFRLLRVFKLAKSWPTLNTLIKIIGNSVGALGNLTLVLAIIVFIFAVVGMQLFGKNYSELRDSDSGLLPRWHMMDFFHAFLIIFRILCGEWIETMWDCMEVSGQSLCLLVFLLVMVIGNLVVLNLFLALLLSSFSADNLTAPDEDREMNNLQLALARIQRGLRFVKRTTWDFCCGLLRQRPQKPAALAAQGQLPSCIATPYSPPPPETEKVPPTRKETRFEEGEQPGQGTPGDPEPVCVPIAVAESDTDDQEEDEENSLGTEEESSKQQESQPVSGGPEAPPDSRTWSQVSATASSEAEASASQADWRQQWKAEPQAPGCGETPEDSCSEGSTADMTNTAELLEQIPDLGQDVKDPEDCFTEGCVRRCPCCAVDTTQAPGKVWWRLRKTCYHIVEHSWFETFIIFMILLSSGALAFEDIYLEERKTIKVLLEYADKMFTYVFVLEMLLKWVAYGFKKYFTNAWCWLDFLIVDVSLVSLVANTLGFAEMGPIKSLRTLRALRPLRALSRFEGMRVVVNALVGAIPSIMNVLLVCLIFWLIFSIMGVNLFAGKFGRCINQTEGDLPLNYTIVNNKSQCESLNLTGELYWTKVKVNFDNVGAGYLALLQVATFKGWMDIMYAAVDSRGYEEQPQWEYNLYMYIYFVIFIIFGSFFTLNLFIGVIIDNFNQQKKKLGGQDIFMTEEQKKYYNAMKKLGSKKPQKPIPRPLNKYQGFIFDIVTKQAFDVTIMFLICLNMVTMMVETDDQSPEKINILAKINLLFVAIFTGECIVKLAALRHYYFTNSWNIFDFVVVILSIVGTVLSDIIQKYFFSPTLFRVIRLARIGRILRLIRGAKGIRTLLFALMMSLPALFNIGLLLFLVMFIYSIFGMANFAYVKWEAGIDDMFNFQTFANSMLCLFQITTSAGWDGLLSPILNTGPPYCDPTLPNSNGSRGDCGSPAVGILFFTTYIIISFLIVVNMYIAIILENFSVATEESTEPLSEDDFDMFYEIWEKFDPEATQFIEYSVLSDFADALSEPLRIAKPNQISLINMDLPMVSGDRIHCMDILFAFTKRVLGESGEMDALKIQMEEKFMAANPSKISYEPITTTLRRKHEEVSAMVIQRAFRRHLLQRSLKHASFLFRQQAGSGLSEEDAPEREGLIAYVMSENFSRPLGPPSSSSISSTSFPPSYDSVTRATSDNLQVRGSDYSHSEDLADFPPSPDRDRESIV", "assay": "State-dependent blocking/unblocking kinetics of Nav1.5 (use-dependent block protocol, inactivation time constants)", "format": "cell-based", "description": "Manual whole-cell patch-clamp experiments were performed at room temperature, with equipment as described in previous studies. Pipettes were pulled from Clark borosilicate glass capillaries with inner filament (GC150F-10, Harvard Apparatus, Holliston, MA, USA) and had typical resistances of 2–3 MΩ. Recordings were performed with a WPC-100 resistive feedback amplifier (ESF electronic, Göttingen, Germany) or an Axopatch 200B amplifier (Axon Instruments—Molecular Devices, San Jose, CA, USA) connected to a Digidata 1322A interface driven by the pClamp 8.2 Clampex module (Axon Instruments, part of Molecular Devices, San Jose, CA, USA). For different types of ion channel, we applied specific voltage-clamp protocols as follows: • - For hERG, a standard two-step activation protocol was used: holding at −70 mV, a 100 ms step at −50 mV used as current reference for measurements, a 2 s depolarizing step at +40 mV, followed by a 2 s step at −50 mV to elicit the peak hERG current by rapid recovery from inactivation, repeated sweeps at 10 s intervals, plus specific protocols to assess the voltage dependence of activation and inactivation, as described in Thomet et al., 2021 [11]. • - For hKv7.1 + minK, a general two-step activation protocol was used: holding at −110 mV, a 250 ms step at −80 mV with a brief (50 ms) step at −90 mV at the middle to monitor seal quality, a 3000 ms depolarizing step at +60 mV, followed by a 1000 ms step at −50 mV; repeated sweeps at 20 s intervals. • - For hCav1.2, a pharmacology protocol with holding at −80 mV, a first 100 ms step at −50 mV and a second 200 ms step at 0 mV, repeated sweeps at 20 s intervals with drug application after 5 sweeps if current levels were steady, plus an activation–inactivation protocol with holding at −80 mV, 1000 ms depolarizing steps from −80 to +50 mV in 10 mV increments, followed by 250 ms steps at +10 mV and a return to −80 mV; 14 sweeps at 20 s intervals. • - For hNav1.5, multiple voltage protocols were used, including the following: • - A standard pharmacology protocol with holding at −90 mV, a 20 ms step at −110 mV for seal monitoring, a 40 ms activation step at −10 mV, and repeated sweeps at 1 s intervals.\nTo estimate state-specific blocking and unblocking kinetics, we applied, initially and during exposure to cenobamate, a special voltage protocol devised for use-dependent block, with repeated brief depolarizing pulses at −10 mV separated by variable intervals at a hyperpolarized potential (−120 mV), with durations between 5 and 50 ms, as described in Section 2. Recordings using this protocol in initial conditions and with cenobamate application are illustrated in Figure S3 of the Supplementary Materials. By noting with td = 10 ms and tr = 5–50 ms the times spent at a depolarized potential and at a resting hyperpolarized potential during each pulse, with on the fraction of available (non-inactivated or blocked) channels that produce the peak Na^+ current during each depolarizing pulse of the sequence, and with τi and τr, the apparent macroscopic time constants of inactivation and recovery from inactivation in control conditions (in the absence of a blocker), we obtained using several approximations a general recurrence formula that allows computation for each experiment of the recovery time constant, knowing the inactivation time constant (obtained by the monoexponential fit of the inactivation part of the recording during the depolarization pulse) and the decay in peak INa amplitude during pulse n relative to the peak amplitude during the preceding pulse (1 − on)/on−1 (detailed explanations in Section S1 of the Supplementary Materials): τr=tr/ln1−e^−td/τi−ln1−on/on−1"}}, "note": "“And” between values parts separate entries of the source, which are not always exact repeats. Equal values may be shown once. Read-outs that look alike come from different tables or passages of the source."}
{"smiles": "NC(=O)O[C@@H](Cn1ncnn1)c1ccccc1Cl", "note": "[cenobamate]", "values": [{"measurement": "protein binding", "setting": "[1]", "value": 35.4, "unit": "%"}, {"measurement": "healthy volunteers with QT interval shortening greater than 20 ms", "setting": "[2]; 200 mg oral dose, 6–17% with placebo", "value": 31, "unit": "%"}, {"measurement": "healthy volunteers with QT interval shortening greater than 20 ms", "setting": "[2]; 500 mg", "value": 66, "unit": "%"}, {"measurement": "QTc interval shortening", "setting": "[2]; ref [9] pp. 11–12", "value": "> 20", "unit": "ms"}, {"measurement": "QTc interval under cenobamate (not below)", "setting": "[2]; ref [9] pp. 11–12", "value": "≥ 300", "unit": "ms"}, {"measurement": "kib (blocking rate, inactivated conformation)", "setting": "[3]", "value": 669800, "unit": "M⁻¹ s⁻¹"}, {"measurement": "kib (model script)", "setting": "[3]", "value": 669800, "unit": "M⁻¹ s⁻¹"}, {"measurement": "kib^−1 (unblocking rate, inactivated conformation)", "setting": "[3]", "value": 0.1825, "unit": "ms^−1"}, {"measurement": "kob (blocking rate, open conformation)", "setting": "[3]", "value": "2.15e+06", "unit": "M⁻¹ s⁻¹"}, {"measurement": "kob (model script)", "setting": "[3]", "value": "2.15e+06", "unit": "M⁻¹ s⁻¹"}, {"measurement": "kob^−1 (unblocking rate, open conformation)", "setting": "[3]", "value": 0.189, "unit": "ms^−1"}, {"measurement": "Kd", "setting": "[3]; Kd (I)", "value": 273, "unit": "µM"}, {"measurement": "Kd", "setting": "[3]; Kd (O), open conformation, assumed equivalent to IC50 on peak INa", "value": 87.8, "unit": "µM"}, {"measurement": "1/τib (kib × [D] + kib^−1)", "setting": "[3]; [D] 98.44 µM", "value": 0.2484, "unit": "ms^−1"}, {"measurement": "est. τib", "setting": "[3]; blocking/unblocking time constant of inactivated conformation, cenobamate estimated 98.44 µM, per experiment and mean ± SD", "value": "4.08 ms and 3.83 ms and 4.94 ms and 3.25 ms"}, {"measurement": "Rate (1/τ) with cenobamate", "setting": "[3]; cenobamate 200 µM, initial 0.94", "value": 1.56, "unit": "ms^−1"}, {"measurement": "τi+ob", "setting": "[3]; use-dependent block protocol during cenobamate (estimated 98.44 µM), per experiment and mean ± SD", "value": "2.23 ms and 3.04 ms and 2.94 ms and 1.73 ms"}]}
